{"source": "patent US12240854B2", "about": "“TRAF 6 inhibitors” (Helmholtz Zentrum München - Deutsches Forschungszentrum für …, priority 2018, dated 2025)", "key": {"RNF4": {"biological_target": "T1, RNF4 (Homo sapiens, UniProt P78317)", "T1 construct": "purchased Boston Biochem", "experiment": "In vitro ubiquitination assay, RNF4 ubiquitin ligase kit", "assay_type": "biochemical", "experimental": "For analysis of cIAP1, MDM2, TRIM63, RNF4, ITCH and E6AP mediated poly-ubiquitination, the respective ubiquitin ligase kit from Boston Biochem (K-102, K-260, K-200B, K-220, K-240 and K-270) was used. Here, reaction buffer, E1, E2 and E3 enzyme (and p53 substrate in case of MDM2) were mixed and pre-incubated with compound or DMSO for 5 minutes at room temperature before adding Mg^2+-ATP and mono-ubiquitin for reaction start. Ubiquitination was visualized by Western Blot analyses."}, "[1]": {"system": "primary human peripheral blood mononuclear cells (PBMCs)", "experiment": "Human PBMC cytokine secretion (ELISA)", "assay_type": "cell-based", "experimental": "For measurement of cytokine secretion, 2×10^5 Jurkat T-cells or primary CD4^+ T-cells or human PBMCs per sample were seeded, treated with compound for 6 hours and stimulated as indicated. 20 hours after stimulation, supernatants were harvested and analyzed with the IL-2, IL-1β and TNFα Ready-Set-Go! ELISA (2nd Generation) kits provided by Affymatrix eBioscience.\nFor isolation of peripheral blood mononuclear cells (PBMCs) from 50 mL human blood of three different donors, blood was mixed with 800 units of Heparin (Sigma-Aldrich) and centrifuged at 300×g for 10 minutes without brake. After removal of the plasma fraction, buffy coat was diluted in 2 volumes PBS and added on top of 15 ml Lymphoprep (STEMCELL technologies). After centrifugation at 160×g for 20 minutes at room temperature without brake, platelets were removed and the cell suspension was centrifuged again at 350×g for 20 minutes without brake. Mononuclear cells from the intermediate layer were transferred to a new falcon and washed 3 times in PBS supplemented with 0.1% BSA and 2 mM EDTA. In the end, cells were resuspended in RPMI medium containing 10% FCS, 1% Penicillin/Streptomycin and 50 μM β-mercaptoethanol. Per sample, 2×10^5 cells were seeded and treated with compound for 6 hours. The cells were stimulated with either 1 μg/ml Lipopolysaccharide (LPS) or CD3/CD28 (1 μg hCD3 (IgG2A), 4 μg hCD28 (IgG1), […] and […]) or 20 ng/IL-1β. Supernatants for analysis of cytokine secretion were harvested 20 hours after stimulation."}, "Jurkat T-cells": {"system": "Jurkat T-cells", "experiment": "Cell cycle assessment (propidium iodide), Jurkat T-cells", "assay_type": "cell-based, human", "details": "24 hours and 72 hours", "experimental": "For cell cycle staining, cells were seeded at 2×10^5 cells per sample and treated with compound or DMSO. After the indicated incubation time (24 or 72 hours), cells were fixed in 100% Ethanol and subsequently stained with the Propidium Iodide staining solution (0.1% Triton X-100; 20 μg/ml Propidium Iodide; 200 μg/ml RNAse A in PBS) for 40 min in the dark. The Propidium Iodide fluorescence was collected using the Attune Flow Cytometer (Thermo Fisher Scientific). Analysis was performed using the Single Cell analysis software FlowJo."}, "MEF cells": {"system": "MEF cells", "experiment": "CellTiter-Glo viability assay, MEF cells", "assay_type": "cell-based, mouse", "details": "6 or 24 hours incubation", "experimental": "For cell viability experiments using the CellTiter-Glo® 2.0 system (Promega), MEF cells (1.2×10^3 cells/well), HepG2 cells (4×10^3 cells/well) and Jurkat T-cells (5×10^3 cells/well) were seeded in 384 well plates. After 18 hours, cells were treated with compounds using the Sciclone G3 automation system. After 6 or 24 hours incubation, the luciferase measurement was performed according to the manufacturer's manual."}, "[2]": {"system": "HBL1 (ABC-DLBCL-MYD88 L265P)", "experiment": "Cell viability in DLBCL, HBL1", "assay_type": "cell-based", "details": "HBL1, 30 μM, added at day 0, 4 and 8, 9 days", "experimental": "To determine the effects of C25-140 on MYD88-dependent ABC-DLBCL, we chose the HBL1 (ABC-DLBCL-MYD88 L265P), U2932 (ABC DLBCL-MYD88 wt) and BJAB (GCB DLBCL) cell lines. 1×10^6 cells of each cell line was seeded in 5 ml and treated with 30 μM compound C25-140 (compound 3) or DMSO. The entire experiment was carried out for 9 days. Every day 500 μl were taken and viable cell number was acquired using the ViCEII cell counter (Beckmann Coulter). At days 4 and 8 of the experiment the volume was again adjusted to 5 ml and samples were supplemented with 30 μM compound C25-140 or DMSO. This process was necessary to ensure linear proliferation of DMSO treated cells. All curves of C25-140 treated samples were referred to the corresponding DMSO treated controls."}, "TRAF6 RZ1 protein": {"biological_target": "T2, TRAF6 RZ1 protein (Homo sapiens, UniProt Q9Y4K3)", "T2 construct": "GST (N, cleaved yes); made in house; host or cells: E. coli BL21 codon plus RIPL, M9 medium with 15NH4", "T2 sequence (Q9Y4K3 with tags, fused parts or gaps)": "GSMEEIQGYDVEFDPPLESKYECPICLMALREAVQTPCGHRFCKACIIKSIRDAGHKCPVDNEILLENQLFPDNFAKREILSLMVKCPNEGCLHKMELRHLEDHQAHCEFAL", "experiment": "Two-dimensional NMR (SOFAST-HMQC) binding experiment", "details": "protein:compound 1:5", "experimental": "To determine whether the inhibitory compounds directly bind to TRAF6 rather than to Ubc13, 2D-NMR experiments were conducted. Untagged ^15N-labeled TRAF6 RZ1 protein (c=120 μM) and compound (c=20 mM) were incubated at a ratio of 1:5 in a 3 mm NMR tube for 10 minutes before spectra acquisition. To observe chemical shift perturbations upon compound addition, two-dimensional SOFAST-HMQC spectra were acquired. All measurements were performed using the Bruker Avance 600 MHz spectrometer."}, "[3]": {"system": "NF-κB activation in Jurkat T-cells", "experiment": "EMSA for NF-κB activation in Jurkat T-cells", "assay_type": "cell-based, human", "details": "PMA/Ionomycin", "experimental": "For compound treatment, MEF cells were seeded in 6 well plates at 1.2×10^5 cells/well the day before treatment. Jurkat T-cells were seeded directly before treatment at 2×10^5 cells/sample. Six hours after compound or DMSO treatment cells were stimulated as indicated. Thereby, MEF cells were left untreated or stimulated with recombinant mouse IL-1β (1 ng/mL) or TNFα (10 ng/mL) for 20 minutes. Jurkat T-cells were stimulated with Phorbol-12-myristat-13-acetet (PMA) (400 ng/mL) and lonomycin (600 ng/mL) for 30 minutes. Eventually, cells were lysed in high-salt lysis buffer (20 mM HEPES pH 7.9; 350 mM NaCl; 1 mM MgCl2; 0.5 mM EDTA; 0.1 mM EGTA; 20% Glycerol; 1% NP-40; 10 mM NaF; 8 mM β-Glycerophosphate; 1 mM DTT; 300 μM Sodium-vanadate; complete protease inhibitor) and analyzed in EMSA assays using H2K (NF-κB) or Oct-1 (loading control) probes."}, "ADME: plasma stability": {"experiment": "ADME: plasma stability", "assay_type": "in vitro ADME", "experimental": "All ADME (plasma stability, plasma protein binding, microsomal stability, Log D, Caco-2 assay, CYP450 inhibition and hERG predictor assay) as well as pharmacokinetic studies (Tmax, Cmax, AUC0-240min, Mean Residence Time, Elimination half life, Elimination rate constant, Volume of Distribution and Clearance) of C25-140 (compound 3) were conducted by Bienta Enamine Biology Services of Bienta/Enamine Ltd."}}, "note": "Entries after “also recorded” stand apart in the source; their conditions may differ."}
{"smiles": "Cc1nn(-c2ccc3nnc(C)n3n2)c(C)c1CCC(=O)N1CCC(Cc2ccccc2)CC1", "note": "[Example C25-140, 1-(4-Benzylpiperidin-1-yl)-3-(3,5-dimethyl-1-(3-methyl-[1,2,4]-triazolo-[4,3-b]-pyridazin-6-yl)-1H-pyrazol-4-yl)-propan-1-one]", "values": [{"measurement": "RNF4 auto-ubiquitination", "setting": "RNF4", "result": "not influenced; also recorded: not affected"}, {"measurement": "secretion of IL-2 and TNFα", "setting": "[1]; CD3/CD28 stimulation", "result": "decreased levels of IL-2 and TNFα secretion"}, {"measurement": "secretion of IL-6 and TNFα", "setting": "[1]; IL-1β stimulation", "result": "reduced secretion; also recorded: attenuated"}, {"measurement": "secretion of IL-1β and TNFα", "setting": "[1]; LPS stimulation", "result": "reduced secretion; also recorded: reduced levels of IL-1β and TNFα cytokines"}, {"measurement": "cell cycle progression", "setting": "Jurkat T-cells", "result": "no effects on cell cycle phases; also recorded: not impaired"}, {"measurement": "metabolic activity and cell viability", "setting": "MEF cells", "result": "did not considerably impact cell viability; also recorded: does not considerably affect metabolic activity and cell viability up to 50 μM; also recorded: at the highest dose of 100 μM toxicity is noticeable"}, {"measurement": "viability of MYD88-dependent ABC-DLBCL", "setting": "[2]", "result": "selectively kills ABC-DLBCL with chronic MYD88 signaling; also recorded: significantly reduced viability; also recorded: diminished"}, {"measurement": "direct binding to TRAF6 RZ1 protein (shifting or disappearing of NMR peaks)", "setting": "TRAF6 RZ1 protein", "result": "directly binds to the TRAF6 protein"}, {"measurement": "NF-κB activation", "setting": "[3]", "result": "reduced; also recorded: attenuated NF-κB activation"}, {"measurement": "plasma stability", "setting": "ADME: plasma stability", "result": "stable"}]}
